Here are results for nine molecules from ChEMBL document CHEMBL1909046, “DrugMatrix in vitro pharmacology data”.

Assay [1] addresses T1, C-C chemokine receptor type 4 (Homo sapiens, UniProt P51679).
T1 sequence (P51679 whole entry): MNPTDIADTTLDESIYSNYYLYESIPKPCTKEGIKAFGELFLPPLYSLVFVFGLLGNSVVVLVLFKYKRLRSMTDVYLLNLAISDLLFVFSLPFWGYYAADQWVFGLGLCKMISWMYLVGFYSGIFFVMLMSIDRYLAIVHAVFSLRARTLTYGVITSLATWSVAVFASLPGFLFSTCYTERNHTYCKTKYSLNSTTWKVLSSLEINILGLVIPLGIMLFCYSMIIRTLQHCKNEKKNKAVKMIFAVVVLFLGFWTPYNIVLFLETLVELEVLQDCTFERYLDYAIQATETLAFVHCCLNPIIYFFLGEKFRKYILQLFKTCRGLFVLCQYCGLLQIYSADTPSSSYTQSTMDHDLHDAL
The assay is classed as cell membranes, Membrane. Particulars: chem-1.

Assay [2] has as its target T2, Cysteinyl leukotriene receptor 1 (Homo sapiens, UniProt Q9Y271). Further: in other assays of this panel Not Active means under 50% inhibition at 10 µM.
T2 sequence (Q9Y271 whole entry): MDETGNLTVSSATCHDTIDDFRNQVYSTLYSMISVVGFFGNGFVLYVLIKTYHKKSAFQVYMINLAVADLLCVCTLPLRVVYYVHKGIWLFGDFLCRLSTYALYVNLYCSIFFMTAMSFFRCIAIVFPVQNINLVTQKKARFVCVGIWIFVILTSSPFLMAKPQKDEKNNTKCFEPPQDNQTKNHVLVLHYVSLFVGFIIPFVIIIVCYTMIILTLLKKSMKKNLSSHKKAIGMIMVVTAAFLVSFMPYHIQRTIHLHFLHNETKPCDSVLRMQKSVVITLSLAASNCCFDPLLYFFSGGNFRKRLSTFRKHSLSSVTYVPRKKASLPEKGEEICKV
The assay is classed as cell membranes, CHO-K1, Membrane. The following applies: cho-k1.

Assay [3] concerns the target T3, Polyunsaturated fatty acid lipoxygenase ALOX15 (Oryctolagus cuniculus, UniProt P12530).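 Further: inhibition of 15-lipoxygenase enzyme activity measured with linoleic acid as the substrate; in other assays of this panel Not Active means under 50% inhibition at 10 µM.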
T3 sequence (P12530 whole entry): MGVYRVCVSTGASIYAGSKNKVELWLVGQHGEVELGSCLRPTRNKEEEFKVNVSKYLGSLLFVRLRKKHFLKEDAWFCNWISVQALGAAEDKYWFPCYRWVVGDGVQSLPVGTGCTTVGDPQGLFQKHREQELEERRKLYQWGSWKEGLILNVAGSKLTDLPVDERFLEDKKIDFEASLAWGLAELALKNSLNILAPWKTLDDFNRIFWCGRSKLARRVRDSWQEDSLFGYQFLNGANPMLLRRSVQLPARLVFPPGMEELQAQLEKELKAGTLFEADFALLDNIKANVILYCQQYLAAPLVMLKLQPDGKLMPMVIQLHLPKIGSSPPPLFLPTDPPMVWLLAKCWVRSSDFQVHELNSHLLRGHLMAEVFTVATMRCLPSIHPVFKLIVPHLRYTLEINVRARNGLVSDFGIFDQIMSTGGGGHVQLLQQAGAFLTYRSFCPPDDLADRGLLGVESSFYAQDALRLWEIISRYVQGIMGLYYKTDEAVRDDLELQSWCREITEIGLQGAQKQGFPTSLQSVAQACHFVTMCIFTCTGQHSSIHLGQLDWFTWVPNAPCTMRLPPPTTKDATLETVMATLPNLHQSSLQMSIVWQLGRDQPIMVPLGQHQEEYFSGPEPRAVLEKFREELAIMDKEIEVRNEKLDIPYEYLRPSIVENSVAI
Put plainly: biochemical. The assay is classed as tissue-based, Reticulocytes. Particulars: reticulocytes.

For the next assay, the target named is Melanocortin receptor 5 (Homo sapiens, UniProt P33032). Type of assay: cell membranes, HEK293, Membrane. The following applies: hek293. Further: in other assays of this panel Not Active means under 50% inhibition at 10 µM.
Assay [4] has as its target T4, Nitric oxide synthase, inducible (Mus musculus, UniProt P29477).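 Further: inhibition of iNOS enzyme activity measured with L-arginine as substrate; in other assays of this panel Not Active means under 50% inhibition at 10 µM.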
T4 sequence (P29477 whole entry): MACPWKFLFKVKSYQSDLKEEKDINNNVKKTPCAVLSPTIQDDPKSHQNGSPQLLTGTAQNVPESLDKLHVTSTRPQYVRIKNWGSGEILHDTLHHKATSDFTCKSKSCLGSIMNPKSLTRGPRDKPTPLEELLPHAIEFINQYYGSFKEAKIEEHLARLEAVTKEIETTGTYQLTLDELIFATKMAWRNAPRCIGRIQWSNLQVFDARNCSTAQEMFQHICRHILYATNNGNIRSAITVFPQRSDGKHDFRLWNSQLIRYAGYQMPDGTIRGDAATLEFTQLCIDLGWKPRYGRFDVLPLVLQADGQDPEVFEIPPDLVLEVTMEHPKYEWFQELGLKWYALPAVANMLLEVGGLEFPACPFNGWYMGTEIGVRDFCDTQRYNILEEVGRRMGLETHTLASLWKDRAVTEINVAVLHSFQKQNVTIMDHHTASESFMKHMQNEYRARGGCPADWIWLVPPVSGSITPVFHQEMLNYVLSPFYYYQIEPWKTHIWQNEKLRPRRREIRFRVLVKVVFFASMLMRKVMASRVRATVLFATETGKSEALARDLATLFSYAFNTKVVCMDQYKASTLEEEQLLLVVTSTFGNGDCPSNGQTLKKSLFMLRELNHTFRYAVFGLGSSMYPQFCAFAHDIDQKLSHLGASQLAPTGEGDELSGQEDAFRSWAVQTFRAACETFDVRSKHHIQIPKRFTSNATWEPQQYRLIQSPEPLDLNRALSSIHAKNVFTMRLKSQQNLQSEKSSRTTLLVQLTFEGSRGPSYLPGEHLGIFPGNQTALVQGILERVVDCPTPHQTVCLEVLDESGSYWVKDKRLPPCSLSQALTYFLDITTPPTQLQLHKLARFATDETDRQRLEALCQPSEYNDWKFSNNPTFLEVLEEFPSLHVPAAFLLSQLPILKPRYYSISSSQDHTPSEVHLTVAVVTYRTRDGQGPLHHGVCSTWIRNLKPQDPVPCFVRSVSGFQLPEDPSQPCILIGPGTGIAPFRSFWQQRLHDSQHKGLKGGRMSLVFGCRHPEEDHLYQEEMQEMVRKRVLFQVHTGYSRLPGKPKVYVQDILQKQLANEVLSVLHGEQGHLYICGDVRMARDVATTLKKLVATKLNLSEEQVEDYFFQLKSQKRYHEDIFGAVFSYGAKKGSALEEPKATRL
The arrangement: species or system Escherichia coli.

Assay [5] can be described thus: DRUGMATRIX: Phorbol Ester radioligand binding (ligand: [3H] PDBu). Type of assay: cell membranes, Mus musculus, ICR, Brain, Membrane. The following applies: Not Active = under 50% inhibition at 10 µM.
Assay [6] addresses Protein phosphatase 3 catalytic subunit alpha (Homo sapiens, UniProt Q08209). More on the design: species or system Escherichia coli.
A short description of assay [7]: DRUGMATRIX: Purinergic P2X radioligand binding (ligand: [3H] alpha, beta-Methylene-ATP). Type of assay: cell membranes, Oryctolagus cuniculus, New Zealand albino, Urinary bladder, Membrane. The following applies: Not Active = under 50% inhibition at 10 µM.

Chain of Melanocortin receptor 5 (P33032 whole entry): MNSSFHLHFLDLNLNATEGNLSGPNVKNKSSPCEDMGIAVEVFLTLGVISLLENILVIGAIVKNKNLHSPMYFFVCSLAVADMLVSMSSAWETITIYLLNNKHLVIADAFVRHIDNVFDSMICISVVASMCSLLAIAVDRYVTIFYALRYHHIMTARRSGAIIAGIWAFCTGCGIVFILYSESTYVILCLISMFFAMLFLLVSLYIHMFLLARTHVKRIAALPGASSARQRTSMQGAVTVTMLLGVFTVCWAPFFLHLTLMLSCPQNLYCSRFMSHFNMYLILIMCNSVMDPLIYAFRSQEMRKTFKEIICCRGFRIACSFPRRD

A word on the IC50: it is the midpoint of a concentration-inhibition curve. In general, Ki refers to a dissociation constant, usually derived from enzyme kinetics or from competition with a known ligand. Turning to `c1ccc2c(c1)cc1ccc3cccc4ccc2c1c34`, the IC50 result (in assay [1]; in assay [2]; in assay [3]; against Melanocortin receptor 5; in assay [4]; in assay [5]) was “Not Active” throughout. Further, the IC50 entry in assay [6] and in assay [7] was “Not Active” each time. The Ki entry in assay [5] and in assay [7] was “Not Active” each time.

Take `CCCCCCCCCc1ccc(O)cc1` [4-NONYLPHENOL]: the IC50 entry (in assay [1]; in assay [2]; in assay [3]; at Melanocortin receptor 5; in assay [4]; in assay [5]) was “Not Active” each time. For the same molecule, the concentration for half-maximal inhibition (IC50) entry in assay [6] and in assay [7] was “Not Active” throughout. The Ki result in assay [5] and in assay [7] was “Not Active” each time.

For `N#C[C@H](O[C@@H]1O[C@H](CO[C@@H]2O[C@H](CO)[C@@H](O)[C@H](O)[C@H]2O)[C@@H](O)[C@H](O)[C@H]1O)c1ccccc1` [AMYGDALIN], the IC50 result (in assay [1]; in assay [2]; in assay [3]; at Melanocortin receptor 5; in assay [4]; in assay [5]) was “Not Active” in each case. The IC50 entry in assay [6] and in assay [7] was “Not Active” in each case. Moreover, the Ki entry in assay [5] and in assay [7] was “Not Active” in each case.

For `C=C1[C@@H]2CCC3[C@@](CC[C@@H]4[C@H](C(=O)O)C[C@@H](O[C@@H]5O[C@H](CO)[C@@H](OS(=O)(=O)[O-])[C@H](OS(=O)(=O)[O-])[C@H]5OC(=O)CC(C)C)C[C@@]34C)(C2)[C@@H]1O.[K+].[K+]` (some centres not stated) [ATRACTYLOSIDE], the IC50 entry (in assay [1]; in assay [2]; in assay [3]; at Melanocortin receptor 5; in assay [4]; in assay [5]) was “Not Active” throughout. In addition, the IC50 result in assay [6] and in assay [7] was “Not Active” in each case. The Ki entry in assay [5] and in assay [7] was “Not Active” in each case.

In the case of `CCCC[C@@H](CC)COC(=O)c1ccccc1C(=O)OC[C@@H](CC)CCCC` [BIS(2-ETHYLHEXYL)PHTHALATE], the IC50 entry (in assay [1]; in assay [2]; in assay [3]; against Melanocortin receptor 5; in assay [4]; in assay [5]) was “Not Active” throughout. Further, the 50% inhibitory concentration (IC50) entry in assay [6] and in assay [7] was “Not Active” each time. The Ki result in assay [5] and in assay [7] was “Not Active” each time.

Regarding `CN1C[C@H](C(=O)N[C@]2(C)O[C@@]3(O)[C@@H]4CCCN4C(=O)[C@H](Cc4ccccc4)N3C2=O)C=C2c3cccc4[nH]cc(c34)C[C@H]21` [ERGOTAMINE], the IC50 result (in assay [1]; in assay [2]; in assay [3]; at Melanocortin receptor 5; in assay [4]; in assay [5]) was “Not Active” in each case. Also, the IC50 result in assay [6] and in assay [7] was “Not Active” throughout. Besides, the Ki entry in assay [5] and in assay [7] was “Not Active” in each case.

In the case of `C=C(C)[C@@H]1[C@H]2OC(=O)[C@@H]1[C@]1(O)C[C@H]3O[C@]34C(=O)O[C@H]2[C@]14C` [PICROTOXININ], the IC50 entry (in assay [1]; in assay [2]; in assay [3]; against Melanocortin receptor 5; in assay [4]; in assay [5]) was “Not Active” throughout. Further, the IC50 entry in assay [6] and in assay [7] was “Not Active” in each case. Moreover, the inhibition constant (Ki) entry in assay [5] and in assay [7] was “Not Active” each time.

Regarding CARBOPLATIN, the IC50 entry (in assay [1]; in assay [2]; in assay [3]; against Melanocortin receptor 5; in assay [4]; in assay [5]) was “Not Active” in each case. The IC50 entry in assay [6] and in assay [7] was “Not Active” throughout. For the same molecule, the Ki entry (in assay [1]; in assay [2]; in assay [3]; at Melanocortin receptor 5; in assay [4]; in assay [5]) was “Not Active” throughout. Moreover, the Ki entry in assay [6] and in assay [7] was “Not Active” throughout.

On to CISPLATIN, for which the 50% inhibitory concentration (IC50) entry in assay [1] was “Not Active”; in assay [2], “Not Active”; in assay [3], “Not Active”; at Melanocortin receptor 5 (read-out: IC50), 6.43 µM; in assay [4] it was “Not Active”; in assay [5], “Not Active”. Further, the IC50 entry in assay [6] and in assay [7] was “Not Active” each time. The Ki result is “Not Active” in assay [1]; “Not Active” in assay [2]; “Not Active” in assay [3]; 6.04 µM on Melanocortin receptor 5 (read-out: Ki); “Not Active” in assay [4]; “Not Active” in assay [5]. The Ki result in assay [6] and in assay [7] was “Not Active” in each case.
